Test results as given in patent publication US9469615B2, “Quinoxalines and AZA-quinoxalines as CRTH2 receptor modulators” (Merck Sharp & Dohme Corp., priority 2010, dated 2016).
Each block holds one compound with its values, some of them ahead of it.

Molecular target: T1, hCRTH2 (Homo sapiens, UniProt Q9Y5Y4)
T1 construct: expressed in transfected cells; host or cells: HEK (human embryonic kidney) cells expressing hCRTH2; membrane preparation
T1 sequence (Q9Y5Y4 1-395): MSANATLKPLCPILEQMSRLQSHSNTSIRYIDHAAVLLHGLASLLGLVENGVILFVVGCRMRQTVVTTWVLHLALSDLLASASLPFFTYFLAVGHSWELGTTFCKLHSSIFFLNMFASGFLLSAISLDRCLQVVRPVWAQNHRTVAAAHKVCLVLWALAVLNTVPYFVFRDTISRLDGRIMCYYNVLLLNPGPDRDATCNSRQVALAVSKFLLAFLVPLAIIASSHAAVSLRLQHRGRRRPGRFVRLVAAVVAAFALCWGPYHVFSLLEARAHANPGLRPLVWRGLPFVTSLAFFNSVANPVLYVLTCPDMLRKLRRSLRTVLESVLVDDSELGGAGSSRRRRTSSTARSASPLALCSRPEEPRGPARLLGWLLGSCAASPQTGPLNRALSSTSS
Assay: Radioligand binding assay ([3H]PGD2 competition, HEK-hCRTH2 membranes)
Conditions: [3H]PGD2 competition, Table B
Method in brief: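 Displacement of 3.0 nM [3H]PGD2 from human CRTH2 expressed in HEK membranes was measured at room temperature over 60 min. Unlabelled PGD2 at 10 μM gave non-specific binding.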

SMILES: C[C@@H](NC(=O)c1ccc2nc(-c3ccccc3)c(CCCC(F)(F)C(=O)O)nc2c1)c1ccc(Cl)cc1 [compound 464, (R)-5-(7-((1-(4-chlorophenyl)ethyl)carbamoyl)-3-phenylquinoxalin-2-yl)-2,2-difluoropentanoic acid]
Ki: 20.1 to 200 nM

SMILES: O=C(N[C@@H]1CCCc2cc(F)ccc21)c1ccc2nc(-c3ccc(F)cc3)c(CCCC(F)(F)C(=O)O)nc2c1 [compound 465, (R)-2,2-difluoro-5-(7-((6-fluoro-1,2,3,4-tetrabydronaphthalen-1-yl)carbamoyl)-3-(4-fluorophenyl)quinoxalin-2-yl)pentanoic acid]
Ki: 2.1 to 20 nM

SMILES: O=C(N[C@@H]1CCCc2cc(Cl)ccc21)c1ccc2nc(-c3ccccc3)c(CCCC(F)(F)C(=O)O)nc2c1 [compound 467, (R)-5-(7-((6-chloro-1,2,3,4-tetrahydronaphthalen-1-yl)carbamoyl)-3-phenylquinoxalin-2-yl)-2,2-difluoropentanoic acid]
Ki: 2.1 to 20 nM

SMILES: O=C(N[C@@H]1CCc2cc(F)ccc21)c1ccc2nc(-c3ccccc3)c(CCCC(F)(F)C(=O)O)nc2c1 [compound 468, (R)-2,2-difluoro-5-(7-((5-fluoro-2,3-dihydro-1H-inden-1-yl)carbamoyl)-3-phenylquinoxalin-2-yl)pentanoic acid]
Ki: 2.1 to 20 nM

SMILES: O=C(N[C@H](c1ccc(F)cc1)C(F)(F)F)c1ccc2nc(-c3ccccc3)c(CCCC(F)(F)C(=O)O)nc2c1 [compound 469, (R)-2,2-difluoro-5-(3-phenyl-7-((2,2,2-trifluoro-1-(4-fluorophenyl)ethyl)carbamoyl)quinoxalin-2-yl)pentanoic acid]
Ki: 201 to 700 nM

SMILES: O=C(c1ccc2nc(-c3ccccc3)c(CCCC(F)(F)C(=O)O)nc2c1)N1CCN(c2ccccc2)CC1 [compound 470, 2,2-difluoro-5-(3-phenyl-7-(4-phenylpiperazine-1-carbonyl)quinoxalin-2-yl)pentanoic acid]
Ki: 20.1 to 200 nM

SMILES: C[C@@H](NC(=O)c1ccc2nc(-c3ccc(F)cc3)c(CCCCC(=O)O)nc2c1)c1ccc(F)cn1 [compound 471, (R)-5-(3-(4-fluorophenyl)-7-((1-(5-fluoropyridin-2-yl)ethyl)carbamoyl)quinoxalin-2-yl)pentanoic acid]
Ki: 2.1 to 20 nM

SMILES: C[C@H](NC(=O)c1ccc2nc(-c3ccc(F)cc3)c(CCCCC(=O)O)nc2c1)c1ccc(F)cn1 [compound 472, (S)-5-(3-(4-fluorophenyl)-7-((1-(5-fluoropyridin-2-yl)ethyl)carbamoyl)quinoxalin-2-yl)pentanoic acid]
Ki: 20.1 to 200 nM

SMILES: C[C@@H](NC(=O)c1ccc2nc(-c3ccccc3)c(CCCCC(=O)O)nc2c1)c1ccc(F)cn1 [compound 473, (R)-5-(7-((1-(5-fluoropyridin-2-yl)ethyl)carbamoyl)-3-phenylquinoxalin-2-yl)pentanoic acid]
Ki: 2.1 to 20 nM

SMILES: C[C@H](NC(=O)c1ccc2nc(-c3ccccc3)c(CCCCC(=O)O)nc2c1)c1ccc(F)cn1 [compound 474, (S)-5-(7-((1-(5-fluoropyridin-2-yl)ethyl)carbamoyl)-3-phenylquinoxalin-2-yl)pentanoic acid]
Ki: 2.1 to 20 nM

SMILES: O=C(N[C@@H]1CCCc2cc(Cl)ccc21)c1ccc2nc(-c3ccc(F)cc3)c(CCCC(F)(F)C(=O)O)nc2c1 [compound 475, (R)-5-(7-((6-chloro-1,2,3,4-tetrahydronaphthalen-1-yl)carbamoyl)-3-(4-fluorophenyl)quinoxalin-2-yl)-2,2-difluoropentanoic acid]
Ki: 2.1 to 20 nM

SMILES: O=C(N[C@@H]1CCc2cc(F)ccc21)c1ccc2nc(-c3ccc(F)cc3)c(CCCC(F)(F)C(=O)O)nc2c1 [compound 476, (R)-2,2-dilluoro-5-(7-((5-fluoro-2,3-dihydro-1H-inden-1-yl)carbamoyl)-3-(4-fluorophenyl)quinoxalin-2-yl)pentanoic acid]
Ki: 20.1 to 200 nM

SMILES: C[C@H](CCCc1nc2cc(C(=O)N[C@@H]3CCCc4ccccc43)ccc2nc1-c1ccc(F)cc1)C(=O)O [compound 477, (R)-5-(3-(4-fluorophenyl)-7-(((R)-1,2,3,4-tetrahydronaphthalen-1-yl)carbamoyl)quinoxalin-2-yl)-2-methylpentanoic acid]
Ki: 2.1 to 20 nM

SMILES: C[C@H](CCCc1nc2cc(C(=O)N[C@H]3CCCc4ccccc43)ccc2nc1-c1ccc(F)cc1)C(=O)O [compound 478, (R)-5-(3-(4-fluorophenyl)-7-(((S)-1,2,3,4-tetrahydronaphthalen-1-yl)carbamoyl)quinoxalin-2-yl)-2-methylpentanoic acid]
Ki: 20.1 to 200 nM

SMILES: C[C@H](CCCc1nc2cc(C(=O)N[C@H](C)c3ccc(F)cc3)ccc2nc1-c1ccc(F)cc1)C(=O)O [compound 479]
Ki: 20.1 to 200 nM

The remaining lines, values ahead:

Ki: 2.1 to 20 nM
SMILES: CC(CCCc1nc2cc(C(=O)N[C@@H]3CCc4cc(Cl)ccc43)ccc2nc1-c1ccc(F)cc1)C(=O)O (stereo partly drawn) [compound 456, 5-(7-(((R)-5-chloro-2,3-dihydro-1H-inden-1-yl)carbamoyl)-3-(4-fluorophenyl)quinoxalin-2-yl)-2-methylpentanoic acid]

Ki: 0.1 to 2 nM
SMILES: CC(CCCc1nc2cc(C(=O)N[C@@H]3CCc4cc(F)ccc43)ccc2nc1-c1ccc(F)cc1)C(=O)O (stereo partly drawn) [compound 457, 5-(7-(((R)-5-fluoro-2,3-dihydro-1H-inden-1-yl)carbamoyl)-3-(4-fluorophenyl)quinoxalin-2-yl)-2-methylpentanoic acid]

Ki: 2.1 to 20 nM
SMILES: CC(CCCc1nc2cc(C(=O)N[C@@H]3CCCc4cc(Cl)ccc43)ccc2nc1-c1ccccc1)C(=O)O (stereo partly drawn) [compound 458, 5-(7-(((R)-6-chloro-1,2,3,4-tetrahydronaphthalen-1-yl)carbamoyl)-3-phenylquinoxalin-2-yl)-2-methylpentanoic acid]

Ki: 2.1 to 20 nM
SMILES: CC(CCCc1nc2cc(C(=O)N[C@@H]3CCCc4cc(F)ccc43)ccc2nc1-c1ccccc1)C(=O)O (stereo partly drawn) [compound 459, 5-(7-(((R)-6-fluoro-1,2,3,4-tetrahydronaphthalen-1-yl)carbamoyl)-3-phenylquinoxalin-2-yl)-2-methylpentanoic acid]

Ki: 2.1 to 20 nM
SMILES: CC(CCCc1nc2cc(C(=O)N[C@H](C)c3ccc(Cl)cc3)ccc2nc1-c1ccccc1)C(=O)O (stereo partly drawn) [compound 460, 5-(7-(((R)-1-(4-chlorophenyl)ethyl)carbamoyl)-3-3-phenylquinoxalin-2-yl)-2-methylpentanoic acid]

Ki: 2.1 to 20 nM
SMILES: CC(CCCc1nc2cc(C(=O)N[C@H](C)c3ccc(F)cc3)ccc2nc1-c1ccccc1)C(=O)O (stereo partly drawn) [compound 461, 5-(7-(((R)-1-(4-fluorophenyl)ethyl)carbamoyl)-3-phenylquinoxalin-2-yl)-2-methylpentanoic acid]

Ki: 2.1 to 20 nM
SMILES: CC(CCCc1nc2cc(C(=O)N3CCN(c4ccccc4)CC3)ccc2nc1-c1ccccc1)C(=O)O (stereo not drawn) [compound 462, 2-methyl-5-(3-phenyl-7-(4-phenylpiperazine-1-carbonyl)quinoxalin-2-yl)pentanoic acid]

Ki: 2.1 to 20 nM
SMILES: CC(CCCc1nc2cc(C(=O)N[C@@H]3C[C@H]3c3ccccc3)ccc2nc1-c1ccccc1)C(=O)O (stereo partly drawn) [compound 463, 2-methyl-5-(3-phenyl-7-(((1R,2S)-2-phenylcyclopropyl)carbamoyl)quinoxalin-2-yl) pentanoic acid]

Ki: 2.1 to 20 nM
SMILES: O=C(N[C@@H]1CCCc2ccccc21)c1ccc2nc(-c3ccccc3)c(CCCC(F)(F)C(=O)O)nc2c1 [compound 466, (R)-2,2-difluoro-5-(3-phenyl-7-((1,2,3,4-tetahydronaphthalen-1-yl)carbamoyl)quinoxalin-2-yl)pentanoic acid]
